Results from patent publication US12187728B2 (Raze Therapeutics, Inc., priority 2015, dated 2025).
pIC50: −log10 of the molar value.

Target: T1, Human MTHFD2 (Homo sapiens, UniProt P13995)
T1 construct: residues 36-350 in Uniport ID P13995; His6 (N); made in house; host or cells: E. coli
T1 sequence (P13995 36-350): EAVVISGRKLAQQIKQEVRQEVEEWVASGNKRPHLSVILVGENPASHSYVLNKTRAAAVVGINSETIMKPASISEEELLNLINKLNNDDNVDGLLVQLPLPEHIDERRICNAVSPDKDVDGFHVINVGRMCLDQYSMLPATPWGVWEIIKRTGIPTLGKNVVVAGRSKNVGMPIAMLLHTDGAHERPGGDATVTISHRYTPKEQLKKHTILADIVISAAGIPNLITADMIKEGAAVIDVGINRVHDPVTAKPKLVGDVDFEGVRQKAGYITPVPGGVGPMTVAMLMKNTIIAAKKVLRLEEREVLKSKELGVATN
Assay: MTHFD2 Activity Assay (dehydrogenase activity, diaphorase/resazurin coupled fluorescence)
Assay type: biochemical
Details: inhibitory activity (IC50 and/or binding constant); 0.2 nM MTHFD2, 11 concentrations
Method in brief: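 Resorufin fluorescence (ex 525, em 598 nm) reports NADH formed by the dehydrogenase via diaphorase coupling. Enzyme (0.2 nM, residues 36-350, N-His6) sat with compound 15 min before 70 μM CH2-THF and 1 mM NAD+ started a 30 min reaction. IC50s come from 4-parameter fits over 11 concentrations.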

SMILES | pIC50
Cn1c(Nc2ccccn2)nc2c1c(=O)n(Cc1ccc(Cl)c(Cl)c1)c(=O)n2C [Example 146, 1-(3,4-dichlorobenzyl)-3,7-dimethyl-8-(pyridin-2-ylamino)-1H-purine-2,6(3H,7H)-dione] | 6.00 to 8.00
Cn1c(NC2(C(=O)O)CC2)nc2c1c(=O)n(Cc1ccc(Cl)c(Cl)c1)c(=O)n2C [Example 147, 1-(1-(3,4-dichlorobenzyl)-3,7-dimethyl-2,6-dioxo-2,3,6,7-tetrahydro-1H-purin-8-ylamino)cyclopropanecarboxylic acid] | 6.00 to 8.00
Cn1c(NCCCO)nc2c1c(=O)n(Cc1ccc(Cl)c(C(F)(F)F)c1)c(=O)n2C [Example 67, 1-{[4-chloro-3-(trifluoromethyl)phenyl]methyl}-8-[(3-hydroxypropyl)amino]-3,7-dimethyl-2,3,6,7-tetrahydro-1H-purine-2,6-dione] | 6.00 to 8.00
C[C@@H](O)CNc1nc2c(c(=O)n(Cc3ccc(Cl)c(Cl)c3)c(=O)n2C)n1C [Example 9, 1-[(3,4-dichlorophenyl)methyl]-8-{[(2R)-2-hydroxypropyl]amino}-3,7-dimethyl-2,3,6,7-tetrahydro-1H-purine-2,6-dione] | 6.00 to 8.00
C[C@@H](O)CNc1nc2c(c(=O)n(Cc3ccc(C(F)(F)F)cc3)c(=O)n2C)n1C [Example 57, 8-{[(2R)-2-hydroxypropyl]amino}-3,7-dimethyl-1-{[4-(trifluoromethyl)phenyl]methyl}-2,3,6,7-tetrahydro-1H-purine-2,6-dione] | 5.00 to 5.30
Cn1c(Nc2cccc(CCC(N)=O)n2)nc2c1c(=O)n(Cc1ccc(Cl)c(Cl)c1)c(=O)n2C [Example 292, 3-(6-(1-(3,4-dichlorobenzyl)-3,7-dimethyl-2,6-dioxo-2,3,6,7-tetrahydro-1H-purin-8-ylamino)pyridin-2-yl)propanamide] | 6.00 to 8.00
CCn1c(=O)n(Cc2cc3c(Cl)cccc3[nH]2)c(=O)c2c1nc(C(C)N)n2C (centres unmarked) [Example 441, 8-(1-aminoethyl)-1-((4-chloro-1H-indol-2-yl)methyl)-3-ethyl-7-methyl-1H-purine-2,6(3H,7H)-dione] | 6.00 to 8.00
Cn1c(Nc2ccc(C(N)=O)cc2)nc2c1c(=O)n(Cc1ccc(Cl)c(Cl)c1)c(=O)n2C [Example 313, 4-[[1-[(3,4-dichlorophenyl)methyl]-3,7-dimethyl-2,6-dioxo-purin-8-yl]amino]benzamide] | 6.00 to 8.00
Cn1c(CCN2CCOCC2)nc2c1c(=O)n(Cc1ccc(Cl)c(Cl)c1)c(=O)n2C [Example 159, 1-(3,4-dichlorobenzyl)-3,7-dimethyl-8-(2-morpholinoethyl)-1H-purine-2,6(3H,7H)-dione] | 6.00 to 8.00
Cn1c(NC2CCCC(C(=O)O)C2)nc2c1c(=O)n(Cc1ccc3cc[nH]c3c1)c(=O)n2C (centres unmarked) [Example 260, 3-(1-((1H-indol-6-yl)methyl)-3,7-dimethyl-2,6-dioxo-2,3,6,7-tetrahydro-1H-purin-8-ylamino)cyclohexanecarboxylic acid] | 6.00 to 8.00
Cn1c(Nc2ccc(CC(=O)O)cc2)nc2c1c(=O)n(Cc1ccc(Cl)c(Cl)c1)c(=O)n2C [Example 288, 2-(4-((1-(3,4-dichlorobenzyl)-3,7-dimethyl-2,6-dioxo-2,3,6,7-tetrahydro-1H-purin-8-yl)amino)phenyl)acetic acid] | 6.00 to 8.00
Cn1c(NCc2ccccn2)nc2c1c(=O)n(Cc1ccc(Cl)c(Cl)c1)c(=O)n2C [Example 139, 1-(3,4-dichlorobenzyl)-3,7-dimethyl-8-(pyridin-2-ylmethylamino)-1H-purine-2,6(3H,7H)-dione] | 5.30 to 6.00
Cn1c(C2CNCCO2)nc2c1c(=O)n(Cc1cc3c(Cl)cccc3[nH]1)c(=O)n2C (centres unmarked) [Example 453, 1-[(4-chloro-1H-indol-2-yl)methyl]-3,7-dimethyl-8-morpholin-2-yl-purine-2,6-dione] | 6.00 to 8.00
Cn1c(NC2CCNC2=O)nc2c1c(=O)n(Cc1ccc(Cl)c(Cl)c1)c(=O)n2C (centres unmarked) [Example 86, 1-[(3,4-dichlorophenyl)methyl]-3,7-dimethyl-8-[(2-oxopyrrolidin-3-yl)amino]-2,3,6,7-tetrahydro-1H-purine-2,6-dione] | 6.00 to 8.00
Cn1c(N[C@H]2CC[C@@H](O)C2)nc2c1c(=O)n(Cc1ccc3sccc3c1)c(=O)n2C (racemic) [Example 74, (±)-1-(1-benzothiophen-5-ylmethyl)-8-{[(cis)-3-hydroxycyclopentyl]amino}-3,7-dimethyl-2,3,6,7-tetrahydro-1H-purine-2,6-dione or (±)-1-(1-benzothiophen-5-ylmethyl)-8-{[(trans)-3-hydroxycyclopentyl]amino}-3,7-dimethyl-2,3,6,7-tetrahydro-1H-purine-2,6-dione] | 6.00 to 8.00
Cn1c(N[C@@H]2CCC[C@@H](O)C2)nc2c1c(=O)n(Cc1ccc(Cl)c(Cl)c1)c(=O)n2C (racemic) [Example 172, (±)-1-(3,4-dichlorobenzyl)-8-((trans)-3-hydroxycyclohexylamino)-3,7-dimethyl-1H-purine-2,6(3H,7H)-dione] | 6.00 to 8.00
Cn1c(NC2CCC(C)(O)C2)nc2c1c(=O)n(Cc1ccc(Cl)c(Cl)c1)c(=O)n2C (racemic) [Example 164, 1-[(3,4-dichlorophenyl)methyl]-8-[(3-hydroxy-3-methylcyclopentyl)amino]-3,7-dimethyl-2,3,6,7-tetrahydro-1H-purine-2,6-dione] | 6.00 to 8.00
Cn1c(NC2CC2)nc2c1c(=O)n(Cc1ccc(Cl)c(Cl)c1)c(=O)n2C [Example 271, 8-(cyclopropylamino)-1-[(3,4-dichlorophenyl)methyl]-3,7-dimethyl-purine-2,6-dione] | 6.00 to 8.00
Cn1c(=O)n(Cc2ccc(Cl)c(Cl)c2)c(=O)c2c1nc(NC1CCCC(C(=O)O)C1)n2CC(=O)O (centres unmarked) [Example 307, 3-(7-(carboxymethyl)-1-(3,4-dichlorobenzyl)-3-methyl-2,6-dioxo-2,3,6,7-tetrahydro-1H-purin-8-ylamino)cyclohexanecarboxylic acid] | 5.30 to 6.00
CNc1nc2c(c(=O)n(Cc3ccc(Cl)c(Cl)c3)c(=O)n2C)n1C [Example 21, 1-[(3,4-dichlorophenyl)methyl]-3,7-dimethyl-8-(methylamino)-2,3,6,7-tetrahydro-1H-purine-2,6-dione] | 5.30 to 6.00

More lines, now with the values ahead:

pIC50 | SMILES
5.30 to 6.00 | Cn1c(CCO)nc2c1c(=O)n(Cc1cc3ccccc3[nH]1)c(=O)n2C [Example 212, 1-((1H-indol-2-yl)methyl)-8-(2-hydroxyethyl)-3,7-dimethyl-1H-purine-2,6(3H,7H)-dione]
6.00 to 8.00 | Cn1c(CCN)nc2c1c(=O)n(Cc1cc3c(Cl)cccc3[nH]1)c(=O)n2C [Example 386, 8-(2-aminoethyl)-1-((4-chloro-1H-indol-2-yl)methyl)-3,7-dimethyl-1H-purine-2,6(3H,7H)-dione]
6.00 to 8.00 | C/C(=N\O)c1nc2c(c(=O)n(Cc3cc4c(Cl)cccc4[nH]3)c(=O)n2C)n1C [Example 478, (E)-1-((4-chloro-1H-indol-2-yl)methyl)-8-(1-(hydroxyimino)ethyl)-3,7-dimethyl-1H-purine-2,6(3H,7H)-dione or (Z)-1-((4-chloro-1H-indol-2-yl)methyl)-8-(1-(hydroxyimino)ethyl)-3,7-dimethyl-1H-purine-2,6(3H,7H)-dione]
6.00 to 8.00 | Cn1c(Nc2ccc(Cl)c(CCC(=O)O)n2)nc2c1c(=O)n(Cc1cc3c(Cl)cccc3[nH]1)c(=O)n2C [Example 396, 3-(3-chloro-6-(1-((4-chloro-1H-indol-2-yl)methyl)-3,7-dimethyl-2,6-dioxo-2,3,6,7-tetrahydro-1H-purin-8-ylamino)pyridin-2-yl)propanoic acid]
6.00 to 8.00 | CC(N)c1nc2c(c(=O)n(Cc3cc4c(Cl)cccc4[nH]3)c(=O)n2C)n1C (centres unmarked) [Example 389, 8-(1-aminoethyl)-1-[(4-chloro-1H-indol-2-yl)methyl]-3,7-dimethyl-purine-2,6-dione]
5.00 to 5.30 | Cn1c(Nc2ccncc2)nc2c1c(=O)n(Cc1cc3ccncc3[nH]1)c(=O)n2C [Example 393, 1-((1H-pyrrolo[2,3-c]pyridin-2-yl)methyl)-3,7-dimethyl-8-(pyridin-4-ylamino)-1H-purine-2,6(3H,7H)-dione]
6.00 to 8.00 | Cn1c(Nc2ccnc(CCC(=O)O)n2)nc2c1c(=O)n(Cc1cc3c(Cl)cccc3[nH]1)c(=O)n2C [Example 355, 3-(4-(1-((4-chloro-1H-indol-2-yl)methyl)-3,7-dimethyl-2,6-dioxo-2,3,6,7-tetrahydro-1H-purin-8-ylamino)pyrimidin-2-yl)propanoic acid]
6.00 to 8.00 | Cn1c(N[C@H]2CCC[C@@H]2O)nc2c1c(=O)n(Cc1cc3c(Cl)cccc3[nH]1)c(=O)n2C [Example 403, 1-((4-chloro-1H-indol-2-yl)methyl)-8-((1S,2S)-2-hydroxycyclopentylamino)-3,7-dimethyl-1H-purine-2,6(3H,7H)-dione]
6.00 to 8.00 | Cn1c(C(N)Cc2ccccc2)nc2c1c(=O)n(Cc1cc3c(Cl)cccc3[nH]1)c(=O)n2C (centres unmarked) [Example 450, 8-(1-amino-2-phenylethyl)-1-((4-chloro-1H-indol-2-yl)methyl)-3,7-dimethyl-1H-purine-2,6(3H,7H)-dione]
